# Measurements from US20210392895A1, “NOVEL OXADIAZOLES” (PI INDUSTRIES LIMITED, priority 2018, published 2021).
# Tested on: Phakopsora pachyrhizi
# Test: Phakopsora pachyrhizi test in soybean (greenhouse, preventive activity, disease severity rating)
# Type: in vivo
# Conditions: preventive spray on soybean, compared to the untreated check
# Procedure: To test the preventive activity of compounds, healthy young soybean plants, raised in the greenhouse, were sprayed with the active compound solution at the stated application rates inside spray cabinets using hallowcone nozzles. One day after treatment, the plants were inoculated with a suspension containing 2.1×10^6 Phakopsora pachyrhizi spores. The inoculated plants were then kept in the greenhouse chamber at 25° C. temperature and 90% relative humidity for disease expression. A visual assessment of the compound's performance was carried out by rating the disease severity (0-100% scale) on treated plants on 3, 7, 10 and 15 days after application. Efficacy (% control) of the compounds was calculated by comparing the disease rating in the treatment with the one of the untreated control. The treated plants were also assessed for plant compatibility by recording symptoms like necrosis, chlorosis and stunting.
row,SMILES,pest or weed control at 500 ppm [%]
1,"CC(C)(C)OC(=O)N1CC[C@@H](Sc2ccc(-c3noc(C(F)(F)F)n3)cc2)C1 [Compound 157, tert-butyl (R)-3-((4-(5-(trifluoromethyl)-1,2,4-oxadiazol-3-yl)phenyl)thio)pyrrolidine-1-carboxylate]",> 70
2,"O=C(c1cccnc1)N1CC[C@H](Oc2ccc(-c3noc(C(F)(F)F)n3)c(F)c2)C1 [Compound 65, (S)-(3-(3-fluoro-4-(5-(trifluoromethyl)-1,2,4-oxadiazol-3-yl)phenoxy)pyrrolidin-1-yl)(pyridin-3-yl)methanone]",> 70
3,"CN(c1ccc(-c2noc(C(F)(F)F)n2)cc1)C1CN(C(=O)c2ccc(C(F)(F)F)cc2)C1 [Compound 101, (3-(methyl(4-(5-(trifluoromethyl)-1,2,4-oxadiazol-3-yl)phenyl)amino)azetidin-1-yl)(4-(trifluoromethyl)phenyl)methanone]",> 70
4,"O=C(C1CCC1)N1CC[C@H](Oc2ccc(-c3noc(C(F)(F)F)n3)cc2)C1 [Compound 9, (S)-cyclobutyl(3-(4-(5-(trifluoromethyl)-1,2,4-oxadiazol-3-yl)phenoxy)pyrrolidin-1-yl)methanone]",> 70
5,"CC(C)(C)OC(=O)N1CCC(Oc2ccc(-c3noc(C(F)(F)F)n3)cc2)CC1 [Compound 84, tert-butyl 4-(4-(5-(trifluoromethyl)-1,2,4-oxadiazol-3-yl)phenoxy)piperidine-1-carboxylate]",> 70
6,"O=C(c1ccccc1)N1CCC(Oc2ccc(-c3noc(C(F)(F)F)n3)cc2)CC1 [Compound 81, phenyl(4-(4-(5-(trifluoromethyl)-1,2,4-oxadiazol-3-yl)phenoxy)piperidin-1-yl)methanone]",> 70
7,"CC(C)(C)OC(=O)N1CC[C@H](Oc2ccc(-c3noc(C(F)(F)F)n3)cc2)C1 [Compound 23, tert-butyl (S)-3-(4-(5-(trifluoromethyl)-1,2,4-oxadiazol-3-yl)phenoxy)pyrrolidine-1-carboxylate]",> 70
8,"CCCS(=O)(=O)N1CC[C@H](Oc2ccc(-c3noc(C(F)(F)F)n3)cn2)C1 [Compound 110, (S)-3-(6-((1-(propylsulfonyl)pyrrolidin-3-yl)oxy)pyridin-3-yl)-5-(trifluoromethyl)-1,2,4-oxadiazole]",> 70
9,"CC(C)(C)OC(=O)N1CC(N(c2ccc(-c3noc(C(F)(F)F)n3)cc2)c2ccc(-c3noc(C(F)(F)F)n3)cc2)C1 [Compound 82, tert-butyl 3-(bis(4-(5-(trifluoromethyl)-1,2,4-oxadiazol-3-yl)phenyl)amino)azetidine-1-carboxylate]",> 70
10,"O=C(c1ccncc1)N1CC[C@H](Oc2ccc(-c3noc(C(F)(F)F)n3)nc2)C1 [Compound 32, (S)-pyridin-4-yl(3-((6-(5-(trifluoromethyl)-1,2,4-oxadiazol-3-yl)pyridin-3-yl)oxy)pyrrolidin-1-yl)methanone]",> 70
11,"O=C(c1ccc(F)cc1)N1CC[C@H](Oc2ccc(-c3noc(C(F)(F)F)n3)cc2)C1 [Compound 14, (S)-(4-fluorophenyl)(3-(4-(5-(trifluoromethyl)-1,2,4-oxadiazol-3-yl)phenoxy)pyrrolidin-1-yl)methanone]",> 70
12,"O=C(Cc1ccc(Cl)cc1)N1CCC(Oc2ccc(-c3noc(C(F)(F)F)n3)cc2)CC1 [Compound 145, 2-(4-chlorophenyl)-1-(4-(4-(5-(trifluoromethyl)-1,2,4-oxadiazol-3-yl)phenoxy)piperidin-1-yl)ethan-1-one]",> 70
13,"COc1ccc(S(=O)(=O)N2CC[C@H](Oc3ccc(-c4noc(C(F)(F)F)n4)cn3)C2)cc1 [Compound 105, (S)-3-(6-((1-((4-methoxyphenyl)sulfonyl)pyrrolidin-3-yl)oxy)pyridin-3-yl)-5-(trifluoromethyl)-1,2,4-oxadiazole]",> 70
14,"O=C(c1ccccc1F)N1CC(Oc2ccc(-c3noc(C(F)(F)F)n3)cc2)C1 [Compound 20, (2-fluorophenyl)(3-(4-(5-(trifluoromethyl)-1,2,4-oxadiazol-3-yl)phenoxy)azetidin-1-yl)methanone]",> 70
15,"O=C(c1ccc(OC(F)(F)F)cc1)N1CC[C@H](Oc2ccc(-c3noc(C(F)(F)F)n3)cc2)C1 [Compound 36, (S)-(4-(trifluoromethoxy)phenyl)(3-(4-(5-(trifluoromethyl)-1,2,4-oxadiazol-3-yl)phenoxy)pyrrolidin-1-yl)methanone]",> 70
16,"O=S(=O)(c1cccc(F)c1)N1CC[C@H](Oc2ccc(-c3noc(C(F)(F)F)n3)cn2)C1 [Compound 149, (S)-3-(6-((1-((3-fluorophenyl)sulfonyl)pyrrolidin-3-yl)oxy)pyridin-3-yl)-5-(trifluoromethyl)-1,2,4-oxadiazole]",> 70

row,SMILES,pest or weed control at 500 ppm [%]
1,"O=S(=O)(c1ccccc1)N1CC[C@H](Oc2ccc(-c3noc(C(F)(F)F)n3)cn2)C1 [Compound 104, (S)-3-(6-((1-(phenylsulfonyl)pyrrolidin-3-yl)oxy)pyridin-3-yl)-5-(trifluoromethyl)-1,2,4-oxadiazole]",> 70
2,"Cc1ccsc1S(=O)(=O)N1CC[C@H](Oc2ccc(-c3noc(C(F)(F)F)n3)cc2)C1 [Compound 147, (S)-3-(4-((1-((3-methylthiophen-2-yl)sulfonyl)pyrrolidin-3-yl)oxy)phenyl)-5-(trifluoromethyl)-1,2,4-oxadiazole]",> 70
3,"N#Cc1ccc(S(=O)(=O)N2CC[C@H](Oc3ccc(-c4noc(C(F)(F)F)n4)cc3)C2)cc1 [Compound 121, (S)-4-((3-(4-(5-(trifluoromethyl)-1,2,4-oxadiazol-3-yl)phenoxy)pyrrolidin-1-yl)sulfonyl)benzonitrile]",> 70
4,"CC(C)(C)C(=O)N1CCC(Oc2cccc(-c3noc(C(F)(F)F)n3)c2)C1 (centres unmarked) [Compound 130, 2,2-dimethyl-1-(3-(3-(5-(trifluoromethyl)-1,2,4-oxadiazol-3-yl)phenoxy)pyrrolidin-1-yl)propan-1-one]",> 70
5,"COc1ccc(C(=O)N2CC[C@H](Oc3ccc(-c4noc(C(F)(F)F)n4)cn3)C2)cc1 [Compound 46, (S)-(4-methoxyphenyl)(3-((5-(5-(trifluoromethyl)-1,2,4-oxadiazol-3-yl)pyridin-2-yl)oxy)pyrrolidin-1-yl)methanone]",> 70
6,"O=C(c1cccc(F)c1)N1CC[C@H](Oc2ccc(-c3noc(C(F)(F)F)n3)cc2F)C1 [Compound 54, (S)-(3-(2-fluoro-4-(5-(trifluoromethyl)-1,2,4-oxadiazol-3-yl)phenoxy)pyrrolidin-1-yl)(3-fluorophenyl)methanone]",> 70
7,"O=C(c1ccc(Cl)cc1)N1CC[C@H](Oc2ccc(-c3noc(C(F)(F)F)n3)cc2)C1 [Compound 44, (S)-(4-chlorophenyl)(3-(4-(5-(trifluoromethyl)-1,2,4-oxadiazol-3-yl)phenoxy)pyrrolidin-1-yl)methanone]",> 70
8,"CS(=O)(=O)N1CC[C@H](Oc2ccc(-c3noc(C(F)(F)F)n3)cn2)C1 [Compound 111, (S)-3-(6-((1-(methylsulfonyl)pyrrolidin-3-yl)oxy)pyridin-3-yl)-5-(trifluoromethyl)-1,2,4-oxadiazole]",> 70
9,"O=S(=O)(c1ccccc1)N1CC[C@H](Oc2ccc(-c3noc(C(F)(F)F)n3)cc2)C1 [Compound 25, (S)-3-(4-((1-(phenylsulfonyl)pyrrolidin-3-yl)oxy)phenyl)-5-(trifluoromethyl)-1,2,4-oxadiazole]",> 70
10,"O=S(=O)(c1cccc(Cl)c1)N1CC[C@H](Oc2ccc(-c3noc(C(F)(F)F)n3)cn2)C1 [Compound 108, (S)-3-(6-((1-((3-chlorophenyl)sulfonyl)pyrrolidin-3-yl)oxy)pyridin-3-yl)-5-(trifluoromethyl)-1,2,4-oxadiazole]",> 70
11,"N#Cc1ccc(S(=O)(=O)N2CC[C@H](Oc3ccc(-c4noc(C(F)(F)F)n4)cn3)C2)cc1 [Compound 150, (S)-4-((3-((5-(5-(trifluoromethyl)-1,2,4-oxadiazol-3-yl)pyridin-2-yl)oxy)pyrrolidin-1-yl)sulfonyl)benzonitrile]",> 70
12,"COc1ccc(C(=O)N2CCC(Oc3cccc(-c4noc(C(F)(F)F)n4)c3)C2)cc1 (centres unmarked) [Compound 146, (4-methoxyphenyl)(3-(3-(5-(trifluoromethyl)-1,2,4-oxadiazol-3-yl)phenoxy)pyrrolidin-1-yl)methanone]",> 70
13,"CN(c1ccc(-c2noc(C(F)(F)F)n2)cc1)C1CN(C(=O)C(C)(C)C)C1 [Compound 129, 2,2-dimethyl-1-(3-(methyl(4-(5-(trifluoromethyl)-1,2,4-oxadiazol-3-yl)phenyl)amino)azetidin-1-yl)propan-1-one]",> 70
14,"CC(C)(C)OC(=O)N1CC[C@H](Oc2ccc(-c3noc(C(F)(F)F)n3)nc2)C1 [Compound 27, tert-butyl (S)-3-((6-(5-(trifluoromethyl)-1,2,4-oxadiazol-3-yl)pyridin-3-yl)oxy)pyrrolidine-1-carboxylate]",> 70
15,"Cn1cnc(S(=O)(=O)N2CC[C@H](Oc3ccc(-c4noc(C(F)(F)F)n4)cc3)C2)c1 [Compound 148, (S)-3-(4-((1-((1-methyl-1H-imidazol-4-yl)sulfonyl)pyrrolidin-3-yl)oxy)phenyl)-5-(trifluoromethyl)-1,2,4-oxadiazole]",> 70
16,"O=C(c1cncnc1)N1CC[C@H](Oc2ccc(-c3noc(C(F)(F)F)n3)cc2)C1 [Compound 57, (S)-pyrimidin-5-yl(3-(4-(5-(trifluoromethyl)-1,2,4-oxadiazol-3-yl)phenoxy)pyrrolidin-1-yl)methanone]",> 70
